# Legend:
# [1] = system: K. pneumoniae ATCC BAA-1705 (KPC2); test: Disk zone of inhibition, antibiotic + Compound-1 on same disk (Methodology 2); type: cell-based, Klebsiella pneumoniae; conditions: CAZ 30 μg or IPM 10 μg disk alone
# Text: (§1) In this experiment, Compound-1 is used as a diagnostic reagent for the detection of β-lactamases belonging to the families KPC & ESBL (e.g., SHV18) producing Enterobacteriaceae. A simple set of absorbent paper disks impregnated with antibiotic on agar medium is used for the detection.
# (§2) • 0.5 McFarland of the test organism was inoculated at 1:10 dilution on Muller • Hinton Agar plates • Test organisms: Klebsiella pneumoniae (K.p) ATCC BAA-1705, Klebsiella pneumoniae ATCC 700603, Escherichia coli (E.c) Ecoli233 • Carbapenem (e.g., Imipenem [IPM] 10 μg) and cephalosporin (e.g., Ceftazidime [CAZ] 30 μg) paper disks (7 mm) were placed on the inoculated agar plates • Compound-1 (60 μg) disk was placed at a distance of 7 & 10 mm from the carbapenem and cephalosporin disks. • The presence of expressed carbapenemases or ESBLs was measured as the expansion of Imipenem or Ceftazidime's inhibition zones due to synergy in the presence of Compound-1.
# (§3) The methodology remains the same as Methodology 1 except the following change • Compound-1 (60 μg) was added on the same disk in combination with a carbapenem (e.g., Imipenem 10 μg) or cephalosporin (e.g., Ceftazidime 30 μg) and placed on the inoculated agar plate. • The presence of the expressed carbapenemases or ESBLs was measured as an increase in Imipenem or Ceftazidime's zone diameter in combination with Compound-1 compared to antibiotic alone. Results
# [2] = system: E. coli Ecoli233 (KPC3); test: as above; type: cell-based, Escherichia coli; conditions: CAZ 30 μg or IPM 10 μg disk alone
# Text: as §1, §2, §3
# [3] = system: K. pneumoniae ATCC 700603 (SHV18); test: as above; type: cell-based, Klebsiella pneumoniae; conditions: CAZ 30 μg or IPM 10 μg disk alone
# Text: as §1
# as §2, with “Compound-1. Results:” for “Compound-1.”
# as §3
# [4] = system: E. coli ATCC 25922 (β-lac-ve); test: as above; type: cell-based, Escherichia coli; conditions: CAZ 30 μg or IPM 10 μg disk alone; ATCC 25922
# [5] = system: KPC-2 producing K. pneumoniae (ATCC BAA-1705); test: Synergistic broth micro-dilution MIC (checkerboard); type: cell-based, Klebsiella pneumoniae; conditions: for MIC: Klebsiella pneumoniae, ATCCBAA1705, no BLI, read-out: MIC of antibiotic alone (no BLI); for MIC / MIC of Imipenem in combination with BLI: ATCC BAA-1705; for Activity with imipenem against the KPC (2 & 3) producing strains, in words: summary of Table 2, all five strains
# [6] = system: KPC-3 expressing E. coli (J53 R6206); test: as above; type: cell-based, Escherichia coli; conditions: no BLI
# [7] = system: K. pneumoniae UMM3 (KPC2); test: Synergistic broth micro-dilution MIC; type: cell-based, Klebsiella pneumoniae; conditions: for MIC of Imipenem in combination with BLI: BLI at 4 μg/mL
# [8] = system: E. cloacae 01 MGH 049 (KPC2, AmpC); test: Synergistic broth micro-dilution MIC; type: cell-based; conditions: for MIC of Imipenem in combination with BLI: BLI at 4 μg/mL
# [9] = system: E. coli Ecoli233 (KPC3); test: Synergistic broth micro-dilution MIC; type: cell-based, Escherichia coli
# [10] = system: K. pneumoniae NCTC 13438 (KPC3); test: Synergistic broth micro-dilution MIC; type: cell-based, Klebsiella pneumoniae; conditions: for MIC of Imipenem in combination with BLI: BLI at 4 μg/mL
# [11] = system: E. coli BAA-201 (TEM-3); test: MIC of Piperacillin with inhibitor, ESBL isolates; type: cell-based
# [12] = system: E. coli BAA-197 (TEM-12); test: MIC of Piperacillin with inhibitor, ESBL isolates; type: cell-based, Escherichia coli
# [13] = system: E. coli BAA-198 (TEM-26); test: MIC of Piperacillin with inhibitor, ESBL isolates; type: cell-based, Escherichia coli
# [14] = system: P. mirabilis BAA-663 (TEM-89); test: MIC of Piperacillin with inhibitor, ESBL isolates; type: cell-based
# [15] = system: E. coli BAA-199 (SHV-3); test: MIC of Piperacillin with inhibitor, ESBL isolates; type: cell-based, Escherichia coli
# [16] = system: E. coli BAA-200 (SHV-4); test: MIC of Piperacillin with inhibitor, ESBL isolates; type: cell-based, Escherichia coli
# [17] = system: K. pneumoniae 700603 (SHV-18); test: MIC of Piperacillin with inhibitor, ESBL isolates; type: cell-based, Klebsiella pneumoniae
# [18] = system: KPC2 K. pneumoniae ATCC BAA 1705; test: Mice systemic infection model; type: in vivo; conditions: Klebsiella pneumoniae, BAA1705; mice, sub-cutaneous; with cilastatin; read-out: ED50 of Imipenem alone
# Description: Female Swiss Albino mice, weighing 18-22 g were used for all studies. For each dose group, 5 or 6 mice were included. Study protocols were reviewed and approved by Institutional Animal Ethical Committee, Orchid Research Laboratories Limited. Mice were housed in individually ventilated cages provided with food and water ad libitum, throughout the study period. From overnight culture in Brain-Heart Infusion agar medium, challenge inoculum with required bacterial density was prepared in normal saline containing Hog gastric mucin. In studies involved with doripenem, washed bacterial cells was used. Each mouse was infected […] inoculum by intra-peritoneal injection.
# Infected mice were dosed sub-cutaneously, with drug preparations at three different time points post-infection.
# Imipenem with BLI combinations: Increasing concentrations of Imipenem as single agent or in combination with fixed concentration of BLIs were used to dose infected mice, sub-cutaneously. In this experiment Imipenem was always administered along with cilastatin. Doripenem with BLI combinations: Increasing concentrations of doripenem as single agent or in combination with fixed concentration of BLIs were used to dose infected mice, sub-cutaneously.
# Survival of the treated mice were monitored twice a day, up to 7 days post-infection. Efficacy dose 50 (ED50) was calculated by Reed and Muench method (Reed, L. J.; Muench, H. “A simple method of estimating fifty percent endpoints”. The American Journal of Hygiene, 1938, 27: 493-497.).
# [19] = system: KPC2 K. pneumoniae ATCC BAA 1705; test: Neutropenic mice thigh infection model (human adapted model); type: in vivo; conditions: Imipenem 140 mg/kg fractionated over 5.5 h; end point 6 h
# Description: Female Swiss Albino mice weighing 24-30 g were used for all studies. Study protocols were reviewed and approved by Institutional Animal Ethical Committee, Orchid Research Laboratories Limited. Mice were rendered neutropenic by intra-peritoneal cyclophosphamide injections. Log phase culture in brain heart infusion broth was injected in to mice thighs. Imipenem or Doripenen alone or in combination were administered sub-cutaneously in decreasing fractionated doses every 15 minutes over the period of 5.5 h (Flückiger, U. et al. “Integration of pharmacokinetics and pharmacodynamics of Imipenem in a human-adapted mouse model’. Antimicrobial Agents and Chemother, 1991, 35(9): 1905-1910). The Compound-1 or tazobactam was administered sub-cutaneously as bolus dose at the start of dosing. Efficacy end point was 6 h in Imipenem studies and 8 h in Doripenen studies.
# Three experiments were carried out where Doripenen alone or in combination with compound-1 or tazobactam (two experiments) were evaluated. Doripenem 70 mg/kg was administered in fractionated doses over the period of 5.5 h (Fluckiger, U. et al. “Integration of pharmacokinetics and pharmacodynamics of Imipenem in a human-adapted mouse model’. Antimicrobial Agents and Chemother., 1991, 35(9): 1905-1910). Compound-1 or tazobactam was administered as bolus dose at initiation of therapy. Efficacy end point was 8 h after initiation of therapy.
Structure (SMILES),"Zone of inhibition (ZOI), antibiotic alone [1] [mm]","Zone of inhibition (ZOI), antibiotic alone [2] [mm]","Zone of inhibition (ZOI), antibiotic alone [3] [mm]","Zone of inhibition (ZOI), antibiotic alone [4] [mm]",MIC [5] [µg/mL],MIC of antibiotic alone (no BLI) [6] [µg/mL],MIC of Imipenem in combination with BLI ([5]; BLI at 4 μg/mL) [µg/mL],MIC of Imipenem in combination with BLI ([5]; BLI at 16 μg/mL) [µg/mL],"Activity with imipenem against the KPC (2 & 3) producing strains, in words [5]",MIC of Imipenem in combination with BLI [7] [µg/mL],MIC of Imipenem in combination with BLI [8] [µg/mL],MIC of Imipenem in combination with BLI ([9]; BLI at 4 μg/mL) [µg/mL],MIC of Imipenem in combination with BLI ([9]; BLI at 16 μg/mL) [µg/mL],MIC of Imipenem in combination with BLI [10] [µg/mL],MIC of Piperacillin with inhibitor ([11]; inhibitor at 1 μg/mL) [µg/mL],MIC of Piperacillin with inhibitor ([11]; inhibitor at 2 μg/mL) [µg/mL],MIC of Piperacillin with inhibitor ([11]; inhibitor at 4 μg/mL) [µg/mL],MIC of Piperacillin with inhibitor ([12]; inhibitor at 1 μg/mL) [µg/mL],MIC of Piperacillin with inhibitor ([12]; inhibitor at 2 μg/mL) [µg/mL],MIC of Piperacillin with inhibitor ([12]; inhibitor at 4 μg/mL) [µg/mL],also measured
CC(C)(O/N=C(\C(=O)N[C@@H]1C(=O)N2C(C(=O)[O-])=C(C[n+]3ccccc3)CS[C@H]12)c1csc(N)n1)C(=O)O [Ceftazidime],12,11,12,25,> 128,>32,–,–,–,–,–,–,–,–,–,–,–,–,–,–,–
"C[n+]1ccn(C[C@@]2(C)[C@H](C(=O)[O-])N3C(=O)C[C@H]3S2(=O)=O)c1 [Compound-12, (2S,3S,5R)-3-Methyl-3-(3-methyl-imidazol-3-ium-1-ylmethyl)-4,4,7-trioxo-4-thia-1-azabicyclo[3.2.0]heptane-2-carboxylate]",–,–,–,–,–,–,4,4,improved activity,2,8,4,1,64,2,4,4,4,4,4,MIC of Piperacillin with inhibitor ([13]; inhibitor at 1 μg/mL): 4 µg/mL; MIC of Piperacillin with inhibitor ([13]; inhibitor at 2 μg/mL): 4 µg/mL; MIC of Piperacillin with inhibitor ([13]; inhibitor at 4 μg/mL): 4 µg/mL; MIC of Piperacillin with inhibitor ([14]; inhibitor at 1 μg/mL): 8 µg/mL; MIC of Piperacillin with inhibitor ([14]; inhibitor at 2 μg/mL): 16 µg/mL; MIC of Piperacillin with inhibitor ([14]; inhibitor at 4 μg/mL): >128 µg/mL; MIC of Piperacillin with inhibitor ([15]; inhibitor at 1 μg/mL): >128 µg/mL; MIC of Piperacillin with inhibitor ([15]; inhibitor at 2 μg/mL): >128 µg/mL; MIC of Piperacillin with inhibitor ([15]; inhibitor at 4 μg/mL): 2 µg/mL; MIC of Piperacillin with inhibitor ([16]; inhibitor at 1 μg/mL): 32 µg/mL; MIC of Piperacillin with inhibitor ([16]; inhibitor at 2 μg/mL): 8 µg/mL; MIC of Piperacillin with inhibitor ([16]; inhibitor at 4 μg/mL): 4 µg/mL; MIC of Piperacillin with inhibitor ([17]; inhibitor at 1 μg/mL): 8 µg/mL; MIC of Piperacillin with inhibitor ([17]; inhibitor at 2 μg/mL): 16 µg/mL; MIC of Piperacillin with inhibitor ([17]; inhibitor at 4 μg/mL): 8 µg/mL
"C[C@]1(Cn2ccnc2)[C@H](C(=O)O)N2C(=O)C[C@H]2S1(=O)=O [Compound-M, (2S,3S,5R)-3-(imidazol-1-ylmethyl)-3-methyl-4,4,7-trioxo-4-thia-1-aza-bicyclo[3.2.0]heptane-2-carboxylic acid]",–,–,–,–,–,–,8,8,only moderately active,8,8,16,16,64,4,4,4,4,8,4,MIC of Piperacillin with inhibitor ([13]; inhibitor at 1 μg/mL): 4 µg/mL; MIC of Piperacillin with inhibitor ([13]; inhibitor at 2 μg/mL): 4 µg/mL; MIC of Piperacillin with inhibitor ([13]; inhibitor at 4 μg/mL): 4 µg/mL; MIC of Piperacillin with inhibitor ([14]; inhibitor at 1 μg/mL): 64 µg/mL; MIC of Piperacillin with inhibitor ([14]; inhibitor at 2 μg/mL): >128 µg/mL; MIC of Piperacillin with inhibitor ([14]; inhibitor at 4 μg/mL): >128 µg/mL; MIC of Piperacillin with inhibitor ([15]; inhibitor at 1 μg/mL): >128 µg/mL; MIC of Piperacillin with inhibitor ([15]; inhibitor at 2 μg/mL): >128 µg/mL; MIC of Piperacillin with inhibitor ([15]; inhibitor at 4 μg/mL): >128 µg/mL; MIC of Piperacillin with inhibitor ([16]; inhibitor at 1 μg/mL): >128 µg/mL; MIC of Piperacillin with inhibitor ([16]; inhibitor at 2 μg/mL): >128 µg/mL; MIC of Piperacillin with inhibitor ([16]; inhibitor at 4 μg/mL): >128 µg/mL; MIC of Piperacillin with inhibitor ([17]; inhibitor at 1 μg/mL): 16 µg/mL; MIC of Piperacillin with inhibitor ([17]; inhibitor at 2 μg/mL): 32 µg/mL; MIC of Piperacillin with inhibitor ([17]; inhibitor at 4 μg/mL): 16 µg/mL
C[C@@H](O)[C@H]1C(=O)N2C(C(=O)O)=C(SCCN=CN)C[C@H]12 [Imipenem],14.5,14,25,26.5,32 to 64,2 to 4,–,–,–,–,–,–,–,–,–,–,–,–,–,–,"MIC ([7]; Klebsiella pneumoniae, no BLI, read-out: MIC of imipenem, No BLI): 8 µg/mL; MIC ([8]; Enterobacter cloacae, no BLI, read-out: MIC of imipenem, No BLI): 8 µg/mL; MIC ([9]; Escherichia coli, no BLI, read-out: MIC of imipenem, No BLI): 16 µg/mL; MIC ([10]; Klebsiella pneumoniae, NCTC13438, no BLI, read-out: MIC of imipenem, No BLI): 128 µg/mL; ED50 [18]: 8.9 mg/kg; Bacterial load, Imipenem alone [19]: 6.8E+06 CFU/thigh"
